Entries after “also recorded” stand apart in the source; their conditions may differ.
How the values were obtained:
[1] = biological target: T1, SERCA1a (rabbit light skeletal SR vesicles) (Oryctolagus cuniculus, UniProt P04191); assay: NADH-coupled Ca-ATPase activity assay, skeletal SR (CRC at pCa 5.4); type: biochemical; settings: n = 3; for Skeletal SR ATPase Activity Percent Increase: maximal effect of CRC 0.05 to 50 µM, pCa 5.4, relative to DMSO, mean ± SD; for EC50: pCa 5.4, mean ± SD
T1 construct: rabbit muscles were freshly harvested from the back and hind leg of New Zealand White rabbits and purified using a sucrose gradient; from tissue; host or cells: rabbit (New Zealand White) back and hind leg skeletal muscle, light SR vesicles
T1 sequence (P04191 1-994 isoform P04191-2): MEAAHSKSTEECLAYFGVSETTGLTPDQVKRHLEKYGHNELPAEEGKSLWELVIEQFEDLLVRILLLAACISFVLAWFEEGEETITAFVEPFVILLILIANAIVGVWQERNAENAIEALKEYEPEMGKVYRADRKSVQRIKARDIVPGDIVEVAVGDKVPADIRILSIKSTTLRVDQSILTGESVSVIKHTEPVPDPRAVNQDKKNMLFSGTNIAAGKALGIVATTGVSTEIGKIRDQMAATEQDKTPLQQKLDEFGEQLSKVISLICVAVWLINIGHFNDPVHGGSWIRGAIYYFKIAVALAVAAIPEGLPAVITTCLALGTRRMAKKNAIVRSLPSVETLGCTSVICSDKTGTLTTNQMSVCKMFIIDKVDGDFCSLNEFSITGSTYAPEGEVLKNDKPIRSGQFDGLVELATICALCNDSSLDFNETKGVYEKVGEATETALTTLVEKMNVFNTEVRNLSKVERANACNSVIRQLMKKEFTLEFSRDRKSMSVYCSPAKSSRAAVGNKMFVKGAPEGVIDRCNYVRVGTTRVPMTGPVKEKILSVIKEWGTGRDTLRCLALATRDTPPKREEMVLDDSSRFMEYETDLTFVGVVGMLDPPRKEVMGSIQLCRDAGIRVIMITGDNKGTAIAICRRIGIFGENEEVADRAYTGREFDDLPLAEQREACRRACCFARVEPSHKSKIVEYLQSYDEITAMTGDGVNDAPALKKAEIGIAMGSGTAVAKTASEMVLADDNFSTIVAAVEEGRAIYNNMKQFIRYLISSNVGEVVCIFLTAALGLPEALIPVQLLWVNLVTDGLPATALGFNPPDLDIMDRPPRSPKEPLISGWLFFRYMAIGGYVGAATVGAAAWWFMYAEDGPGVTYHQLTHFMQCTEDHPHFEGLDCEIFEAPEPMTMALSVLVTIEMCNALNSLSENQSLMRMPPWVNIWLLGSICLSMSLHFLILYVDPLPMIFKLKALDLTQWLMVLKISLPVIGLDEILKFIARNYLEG
Description: (§1) For skeletal SR, rabbit muscles were freshly harvested from the back and hind leg of New Zealand White rabbits and purified using a sucrose gradient. The resulting light skeletal SR contains 80% SERCA, as a proportion of total protein content. Cardiac SR vesicles were isolated from fresh porcine left ventricular tissue.
(§2) Functional assays were performed using rabbit light skeletal sarcoplasmic (SR) vesicles. For high-throughput NADH-coupled screening, assay mix containing a final concentration of 50 mM MOPS (pH 7.0), 100 mM KCl, 1 mM EGTA, 0.2 mM NADH, 1 mM phosphoenol pyruvate, 10 IU/mL of pyruvate kinase, 10 IU/mL of lactate dehydrogenase, 1 µM of the calcium ionophore A23187, 4 µg/mL skeletal SR, and added CaCl2 to obtain pCa 5.4 was dispensed into 384-well DIVERSet assay plates containing 50 nL of compound or DMSO using a FlexDrop Precision liquid dispenser (Perkin Elmer, Waltham, Massachusetts). Plates were sealed, covered from light, and incubated at room temperature for 20 min. The assay was then started by dispensing MgATP (termed “initiation mix”), to a final concentration of 5 mM in each well (80 µL total assay volume) with the FlexDrop liquid dispenser (Perkin Elmer). The time dependence of absorbance was measured at 340 nm in a SpectraMax Plus384 microplate spectrophotometer (Molecular Devices, Sunnyvale, CA). For follow-up concentration response curves of Hit compounds, 400 nL of either compound or DMSO was dispensed into each well using an Echo liquid dispenser (Beckman Coulter). Testing dose-dependent compound effects on rabbit skeletal SR vesicles was done using the same method, as described above in 384-well plates. Determining compound effects on cardiac SR vesicles was done in a similar method as above, with the exception of 10 µg/mL of cardiac SR incubated in assay mix consisting of a final concentration of 50 mM MOPS (pH 7.0), 100 mM KCl, 1 mM EGTA, 1 µM of the calcium ionophore A23187, and added CaCl2 to the desired free calcium values. After a 20 min incubation, the “initiation mix”, containing a final concentration of 0.2 mM NADH, 1 mM phosphoenol pyruvate, 10 IU/mL of pyruvate kinase, 10 IU/mL of lactate dehydrogenase, and 5mM MgATP, was dispensed into each well.
The initial screen assay was performed with compounds at 10 µM. To better study the selected Hit compounds for their activation potential, we performed ATPase analyses (in triplicate) over a range of Hit concentrations (0.05 to 50 µM), generating concentration-response curves (CRCs) to determine maximal effects and EC50 (Figure 2). We used the same Ca^2+ concentration (pCa 5.4) as in the screening assays, thus focusing on the effects on the maximal velocity of SERCA. Two of the selected Hits yielded no response in follow-up assays, probably due to a mismatch in chemical composition between the library compound and the subsequently ordered compound (DS95401435 and DS41547941). This type of discrepancy is a typical hurdle in the screening process. Each of the other 19 compounds produced a substantial increase in ATPase activity, ranging from 30% to 72% (Table 1 and Supporting Information, Figure S1), as expected due to similarity of the CRC assay to the initial screen.

[2] = biological target: T2, SERCA1a (skeletal SR vesicles) (Oryctolagus cuniculus, UniProt P04191); assay: Oxalate-supported Ca2+-uptake assay, skeletal SR (CRC at pCa 5.4); type: biochemical, rabbit; settings: for Skeletal SR Ca^2+ Uptake Activity Percent Increase: maximal effect of CRC; for Skeletal SR Ca^2+ Uptake Activity Percent Increase / EC50: pCa 5.4, mean ± SD, dash = no observable effect; for EC50: read-out: Skeletal SR Ca^2+ Uptake Activity EC50; for Effect on Ca^2+ uptake activity in skeletal SR (in words): pCa 5.4; for Ca^2+ uptake effect (in words), SR type not given: uncoupling compounds, cluster 5, tissue not stated
T2 construct: rabbit muscles were freshly harvested from the back and hind leg of New Zealand White rabbits and purified using a sucrose gradient; from tissue; host or cells: rabbit (New Zealand White) back and hind leg skeletal muscle, light SR vesicles
T2 sequence (P04191 1-994 isoform P04191-2): as above
Description: as §1
(§3) To determine compound effect on the Ca^2+-uptake activity of SERCA1a and SERCA2a, we used an oxalate-supported assay. A solution containing 50 mM MOPS (pH 7.0), 100 mM KCl, 30 mg/mL sucrose, 1 mM EGTA, 10 mM potassium oxalate, 2 µM Fluo-4, 30 µg/mL cardiac SR vesicles or 12 μg/mL skeletal SR vesicles, and CaCl2 calculated to reach the desired free [Ca^2+] was dispensed into 384-well black walled, transparent bottomed plates (Greiner Bio-One) containing the tested small molecule and incubated at 21 °C for 20 min while covered and protected from light. To start the reaction, MgATP was added to a final concentration of 5 mM, and the decrease in 485-nm excited fluorescence was monitored at 520 nm for 15 min using a FLIPR Tetra (Molecular Devices, San Jose, CA, USA).
While Ca^2+-dependent ATPase activity is a direct measure of SERCA activity, coupling of ATP hydrolysis to transport of Ca^2+ across the SR membrane is essential for the role of SERCA in cellular physiology. Therefore, we next asked whether our ATPase-based HTS assay could successfully identify compounds that also increase Ca^2+ uptake of SERCA.

[3] = biological target: T3, SERCA2a (cardiac SR vesicles) (Sus scrofa, UniProt P11607); assay: NADH-coupled Ca-ATPase activity assay, cardiac SR (CRC at pCa 5.4); type: biochemical, porcine; settings: pCa 5.4, mean ± SD, n = 3; for Cardiac SR ATPase Activity Percent Increase: maximal effect of CRC
T3 construct: Cardiac SR vesicles were isolated from fresh porcine left ventricular tissue; from tissue; host or cells: porcine left ventricular tissue, cardiac SR vesicles
T3 sequence (P11607 1-997 isoform P11607-2): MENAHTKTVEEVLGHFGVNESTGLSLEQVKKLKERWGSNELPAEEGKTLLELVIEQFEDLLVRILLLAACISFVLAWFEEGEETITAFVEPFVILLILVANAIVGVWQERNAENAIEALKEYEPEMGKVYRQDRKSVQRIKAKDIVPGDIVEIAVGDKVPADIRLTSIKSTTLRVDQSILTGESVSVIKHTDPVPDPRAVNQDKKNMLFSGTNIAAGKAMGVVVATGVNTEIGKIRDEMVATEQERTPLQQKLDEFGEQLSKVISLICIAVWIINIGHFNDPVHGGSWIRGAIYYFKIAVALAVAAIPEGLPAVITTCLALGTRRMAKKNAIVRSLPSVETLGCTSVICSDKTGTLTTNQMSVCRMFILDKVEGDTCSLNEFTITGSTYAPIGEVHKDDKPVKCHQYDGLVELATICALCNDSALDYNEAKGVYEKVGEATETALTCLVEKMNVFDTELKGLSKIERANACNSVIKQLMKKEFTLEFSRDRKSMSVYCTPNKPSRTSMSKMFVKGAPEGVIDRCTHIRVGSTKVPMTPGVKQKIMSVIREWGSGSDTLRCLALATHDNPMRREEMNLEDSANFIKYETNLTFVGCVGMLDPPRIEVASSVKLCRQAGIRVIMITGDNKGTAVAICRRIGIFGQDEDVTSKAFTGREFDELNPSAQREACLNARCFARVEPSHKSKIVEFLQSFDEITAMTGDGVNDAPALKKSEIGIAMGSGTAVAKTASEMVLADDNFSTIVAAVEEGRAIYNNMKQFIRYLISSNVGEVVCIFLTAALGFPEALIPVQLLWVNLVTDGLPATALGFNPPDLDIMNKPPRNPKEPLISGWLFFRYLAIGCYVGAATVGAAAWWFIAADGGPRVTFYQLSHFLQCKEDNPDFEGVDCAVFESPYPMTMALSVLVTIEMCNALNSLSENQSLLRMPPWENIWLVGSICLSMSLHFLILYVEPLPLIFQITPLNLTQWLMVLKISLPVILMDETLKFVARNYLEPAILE
Description: as §1, §2
While initial screening was performed in skeletal SR enriched with the SERCA1a isoform, high sequence and structural homology with the cardiac SERCA2a isoform predicts a potential for cross reactivity of the Hit compounds. To test this hypothesis, we performed ATPase analyses with cardiac SR microsomes, which are enriched for SERCA2a.

[4] = biological target: T3, SERCA2a (cardiac SR vesicles); assay: Oxalate-supported Ca2+-uptake assay, cardiac SR (CRC at pCa 5.4); type: biochemical, porcine; settings: for Cardiac SR Ca^2+ Uptake Activity Percent Increase: maximal effect of CRC; for Cardiac SR Ca^2+ Uptake Activity Percent Increase / EC50: pCa 5.4, mean ± SD, dash = no observable effect; for Cardiac SR Ca^2+ Uptake Activity Percent Increase / EC50 / Compound classification from ATPase vs. Ca^2+ uptake CRCs, cardiac SR: n = 3; for EC50: read-out: Cardiac SR Ca^2+ Uptake Activity EC50; for Effect on Ca^2+ uptake activity in cardiac SR (in words): pCa 5.4
Description: as §1, §3
To determine whether the observed increases in SERCA2a ATPase activity translate to Ca^2+ uptake function, we applied our Ca^2+ transport assay to test our selected Hit compounds in cardiac SR (Table 1). Indeed, 16 of the 19 compounds yielded a clear increase in Ca^2+ uptake activity. In fact, eight compounds generated an increase at least 50% greater in cardiac SR than in skeletal SR. Three compounds had either an inhibitory or no effect on Ca^2+ transport, and two of these were also non-activating compounds in skeletal SR.

Structure (SMILES) | Skeletal SR ATPase Activity Percent Increase [1] | EC50 [1] | Skeletal SR Ca^2+ Uptake Activity Percent Increase ([2]; n = 3) | EC50 ([2]; n = 3) | Cardiac SR ATPase Activity Percent Increase [3] | EC50 [3] | Cardiac SR Ca^2+ Uptake Activity Percent Increase [4] | EC50 [4] | Effect on Ca^2+ uptake activity in skeletal SR (in words) ([2]; skeletal SR) | Compound classification from ATPase vs. Ca^2+ uptake CRCs, cardiac SR [4] | Effect on Ca^2+ uptake activity in cardiac SR (in words) [4] | Increase in Ca^2+ uptake in cardiac SR vs. skeletal [4] | Ca^2+ uptake effect (in words), SR type not given [2] | Compound classification from ATPase vs. Ca^2+ uptake CRCs, skeletal SR ([2]; skeletal SR, n = 3) | Effect on Ca^2+ uptake activity in skeletal SR (in words) ([2]; skeletal SR, listed as DS33804556)
Cc1ccsc1CN(C)C(=O)CC(c1ccccc1)c1ccc2c(c1)OCO2 (stereo not shown) [Compound 11] | 61 ± 2% | 7.2 ± 0.4 µM | 9.1 ± 0.8% | 1.2 ± 0.3 µM | 62 ± 2% | 6.4 ± 0.4 µM | 18 ± 2% | 1.2 ± 0.4 µM |  |  |  |  |  |  | 
Fc1ccc(N2CCCN(Cc3nc(C(c4ccccc4)c4ccccc4)no3)CC2)cc1 [Compound 12] | 41 ± 2% | 3.4 ± 0.4 µM | 6.5 ± 0.5% | 0.6 ± 0.2 µM | 29 ± 1% | 2.3 ± 0.3 µM | −10 ± 3% | 1.3 ± 0.1 µM | significant activation; also recorded: small but significant increase | Isoform-specific uncoupler | strong uncoupling effect; also recorded: inhibition of Ca^2+ uptake activity |  |  |  | 
CN(Cc1ccccc1)c1ncccc1CNc1ncccc1Cl [Compound 13] | 36 ± 4% | 3.2 ± 0.6 µM | 8 ± 2% | 1.1 ± 0.6 µM | 36 ± 4% | 2.9 ± 0.6 µM | 21 ± 10% | 1.8 ± 2 µM |  |  |  | greater than 2 fold |  |  | 
COc1ccccc1CNc1nc(C(C)(C)C)nc2c1cnn2C [Compound 14] | 25 ± 3% | 3.3 ± 0.6 µM | 8 ± 2% |  | 56 ± 3% | 5.2 ± 0.5 µM | 28 ± 5% | 2.5 ± 0.9 µM |  |  |  | greater than 2 fold |  |  | 
C=C(C)COc1cccc(C(=O)NCCn2cccn2)c1 [Compound 15] | 30 ± 1% | 30 ± 12 µM |  |  | 46 ± 6% | 16 ± 3 µM | 6 ± 5% | 5 ± 11 µM |  |  |  |  | little to no Ca^2+ uptake effect |  | 
COc1ccc(CCNC(=O)c2oc3c(Cl)cc(C)cc3c2C)cc1 [Compound 16] | 25 ± 1% | 3 ± 0.3 µM | −10 ± 2% | 7 ± 13 µM | 26 ± 2% | 2.2 ± 0.4 µM | −27 ± 3% | 8.9 ± 2 µM | inhibition of Ca^2+ uptake activity; also recorded: inhibitor of Ca^2+ uptake | Uncoupling Compounds | inhibition of Ca^2+ uptake activity; also recorded: inhibitor of Ca^2+ uptake |  | sizeable inhibitor effect | Uncoupling Compounds | inhibitory
COc1cccc(-c2nn(-c3ccccc3)cc2CN(Cc2c(C)nn(C)c2C)C2CC2)c1 [Compound 18] | 39 ± 1% | 5.2 ± 0.3 µM | 8.9 ± 0.1% | 1.1 ± 0.3 µM | 37 ± 1% | 4.3 ± 0.3 µM | 12 ± 1% | 0.9 ± 0.2 µM |  |  |  |  |  |  | 
OCc1ccccc1-c1ccc(-c2nc(CCc3ccccc3)no2)cn1 [Compound 19] | 42 ± 2% | 7.3 ± 0.8 µM | 7.2 ± 0.1% | 1.8 ± 0.7 µM | 22 ± 2% | 6.3 ± 0.4 µM | 8 ± 1% | 2.4 ± 0.6 µM |  |  |  |  |  |  | 
